One compound from patent US11136297B2, “Compositions and methods for treating cancer” (THE REGENTS OF THE UNIVERSITY OF CALIFORNIA, priority 2016, dated 2021) can be followed below.

In the assay the target is T1, H-Ras(M72C) GppNHp binding to Raf-1-RBD (Homo sapiens, UniProt P01112, M72C).
T1 construct: and H-Ras (residues 1-166) were transformed into Escherichia coli; His6; made in house; host or cells: Escherichia coli BL21(DE3)
As to the kind of experiment: Ras GppNHp in vitro pull down by His6-MBP-Raf-1-RBD. Conditions: H-Ras(M72C) pre-labeled with compound. As to the method:
Ras GppNHp In Vitro Pull Down Assay by His6-MBP-Raf-1-RBD. For each His6-MBP-Raf-1-RBD in vitro pull down the total volume was 500 μL. Each reaction had the following final composition: Either 20, 80, 200, 400, or 800 nM Ras GppNHp (from 0.2 mg/mL Ras stock), 75 nM BSA (2.5 μg, 5 μL of 0.5 mg/mL BSA stock), 200 nM of His6-MBP-Raf-1-RBD (5.3 μg, 1.2 μL of 4.38 mg/mL stock of His6-MBP-Raf-1-RBDwitt), and Raf Pull Down Buffer to volume (25 mM Tris (pH 7.2), 150 mM NaCl, 5 mM MgCl2, 1% NP-40, 5% glycerol, 20 mM imidazole). Samples were then mixed by gentle rotation at 4° C. for 30 min. While equilibrating, add 50 μL Ni-NTA slurry (Qiagen) to a cellulose acetate spin cup and spin at 5,000 rpm on a tabletop centrifuge for 30 seconds. Wash the beads with 400 μL of Raf Pull Down Buffer to wash away bead storage buffer. Before adding each pull down solution, take 10 μL and save as a loading control sample. To each spin cup filled with washed Ni-NTA beads, add the remaining equilibrated pull down solution, seal the spin cup with parafilm and let rotate at 4° C. for 30 more minutes. After mixing, centrifuge the sample for 30 seconds at 5,000 rpm. Toss flow through. Wash the beads X 5 with 400 μL of Raf Pull Down Buffer. After last wash, centrifuge one last time to remove any excess buffer stuck to the beads. […] Blots were read out using LICOR compatible secondary antibodies. […]

Take `COc1ccc(-n2ncc(C(=O)NCCCSSCCN(C)C)c2C(F)(F)F)cc1` [Compound 2C07, N-(3-((2-(dimethylamino)ethyl)disulfanyl)propyl)-1-(4-methoxyphenyl)-5-(trifluoromethyl)-1H-pyrazole-4-carboxamide]: the “Raf-1-RBD binding (pull down), labeled vs unlabeled H-Ras(M72C)” value is “no significant difference in Raf-1-RBD binding”.
